Blank lines part the entries; values can stand above or below the compound they belong to. Activity calls are given as the source filed them. The rule behind the calls is not given here.
Experiments:
Type in all cases: functional, cell-based
MCF7 [1] = test: Antiproliferative activity against human MCF7 cells assessed as reduction in cell viability at 15 uM after 24 hrs by MTT assay relative to control
MCF7 [2] = test: Antiproliferative activity against human cisplatin resistant human MCF7-CR cells assessed as reduction in cell viability at 15 uM after 24 hrs by MTT assay relative to control
MCF7 [3] = test: Induction of apoptosis in cisplatin-resistant human MCF7-CR cells assessed as increase in release of cytochrome C in cytosol expression at 10 to 25 uM after 16 hrs by western blot analysis; conditions: dose 10-25 µM, DDE = dose-dependent effect
MCF7 [4] = test: Antiproliferative activity against cisplatin-resistant human MCF7-CR cells transfected with MBR C2 vector assessed as reduction in cell viability after 24 hrs by MTT assay; conditions: MCF7, 24 h
MCF7 [5] = test: Antiproliferative activity against human MCF7 cells assessed as reduction in cell viability after 24 hrs by MTT assay; conditions: MCF7, 24 h
MCF7 [6] = test: Induction of cell death in cisplatin-resistant human MCF7-CR cells assessed as reduction in cell volume at 10 uM after 24 hrs
MCF7 [7] = test: Inhibition of colony formation in cisplatin-resistant human MCF7-CR cells at 5 to 25 uM after 7 days; conditions: dose 5-25 µM, time 7.0 day, DDE = dose-dependent effect
MCF7 [8] = test: Antiproliferative activity against cisplatin-resistant human MCF7-CR cells assessed as reduction in cell viability after 24 hrs by MTT assay; conditions: MCF7, 24 h
MCF7 [9] = test: Antiproliferative activity against cisplatin-resistant human MCF7-CR cells cultured as 3D-spheroids assessed as reduction in cell viability at 5 to 25 uM after 24 hrs by alamar blue assay; conditions: dose 5-25 µM, DDE = dose-dependent effect
MCF7 [10] = test: Antiproliferative activity against cisplatin-resistant human MCF7-CR cells transfected with MBR C3 vector assessed as reduction in cell viability after 24 hrs by MTT assay; conditions: MCF7, 24 h
MCF7 [11] = test: Antiproliferative activity against human MCF7 cells transfected with MBR C3 vector assessed as reduction in cell viability after 24 hrs by MTT assay; conditions: MCF7, 24 h
MCF7 [12] = test: Synergistic antiproliferative activity against cisplatin-resistant human MCF7-CR cells assessed as reduction in cell viability in presence of ABT737 after 24 hrs by MTT assay; conditions: MCF7, 24 h
MCF7 [13] = test: Antiproliferative activity against cisplatin-resistant human MCF7-CR cells transfected with empty vector assessed as reduction in cell viability after 24 hrs by MTT assay; conditions: MCF7, 24 h
MCF7 [14] = test: Antiproliferative activity against human MCF7 cells transfected with BCLXL C5 vector assessed as reduction in cell viability after 24 hrs by MTT assay; conditions: MCF7, 24 h
MCF7 [15] = test: Synergistic antiproliferative activity against cisplatin-resistant human MCF7-CR cells assessed as reduction in cell viability in presence of taxol after 24 hrs by MTT assay; conditions: MCF7, 24 h
MCF7 [16] = test: Induction of cell death in human MCF7 cells assessed as reduction in cell volume at 10 uM after 24 hrs
MCF7 [17] = test: Induction of apoptosis in cisplatin-resistant human MCF7-CR cells assessed as decrease in BCL2 protein expression at 5 to 25 uM after 16 hrs by western blot analysis; conditions: dose 5-25 µM, DDE = dose-dependent effect
MCF7 [18] = test: Antiproliferative activity against human MCF7 cells cultured as 3D-spheroids assessed as reduction in cell viability at 5 to 25 uM after 24 hrs by alamar blue assay; conditions: dose 5-25 µM, DDE = dose-dependent effect
MCF7 [19] = test: Antiproliferative activity against human MCF7 cells transfected with empty vector assessed as reduction in cell viability after 24 hrs by MTT assay; conditions: MCF7, 24 h
MCF7 [20] = test: Synergistic antiproliferative activity against cisplatin-resistant human MCF7-CR cells assessed as reduction in cell viability in presence of cisplatin after 24 hrs by MTT assay; conditions: MCF7, 24 h
MCF7 [21] = test: Induction of apoptosis in cisplatin-resistant human MCF7-CR cells assessed as decrease in BCLXL protein expression at 5 to 25 uM after 16 hrs by western blot analysis; conditions: dose 5-25 µM
MCF7 [22] = test: Inhibition of colony formation in human MCF7 cells at 5 to 25 uM after 7 days; conditions: dose 5-25 µM, time 7.0 day, DDE = dose-dependent effect
MCF7 [23] = test: Induction of cell death in cisplatin-resistant human MCF7-CR cells assessed as round cell morphology at 10 uM after 24 hrs
MCF7 [24] = test: Induction of cell death in human MCF7 cells assessed as round cell morphology at 10 uM after 24 hrs

SMILES: Oc1cccc(-c2nc(-c3ccccc3)c3cc(Cl)ccc3n2)c1O
Activity (MCF7 [1]): Active | Activity (MCF7 [2]): Active

SMILES: CCOc1ccc(-c2nc(-c3ccccc3)c3cc(Cl)ccc3n2)cc1
Activity (MCF7 [1]): Active | Activity (MCF7 [2]): Active

EC50 (MCF7 [4]): 5.04 µM | EC50 (MCF7 [5]): 5.02 µM | EC50 (MCF7 [8]): 5.44 µM | EC50 (MCF7 [10]): 5.19 µM | EC50 (MCF7 [11]): 2.96 µM | EC50 (MCF7 [12]): 0.29 µM | EC50 (MCF7 [13]): 22.4 µM | EC50 (MCF7 [14]): 6.87 µM | EC50 (MCF7 [15]): 1.23 µM | EC50 (MCF7 [19]): 8.62 µM | EC50 (MCF7 [20]): 4.89 µM
SMILES: Fc1cc(-c2nc(-c3ccccc3)c3cc(Cl)ccc3n2)ccc1Br
Activity (MCF7 [3]): Dde | Activity (MCF7 [6]): Active | Activity (MCF7 [7]): Dde | Activity (MCF7 [9]): Dde | Activity (MCF7 [1]): Active | Activity (MCF7 [16]): Active | Activity (MCF7 [17]): Dde | Activity (MCF7 [18]): Dde | Activity (MCF7 [21]): Active | Activity (MCF7 [2]): Active | Activity (MCF7 [22]): Dde | Activity (MCF7 [23]): Active | Activity (MCF7 [24]): Active

EC50 (MCF7 [8]): 4.39 µM
SMILES: CN(C)CC[C@H](CSc1ccccc1)Nc1ccc(S(=O)(=O)NC(=O)c2ccc(N3CCN(Cc4ccccc4-c4ccc(Cl)cc4)CC3)cc2)cc1[N+](=O)[O-] [ABT 737]

SMILES: CCOc1cc(-c2nc(-c3ccccc3)c3cc(Cl)ccc3n2)ccc1OC
Activity (MCF7 [1]): Active | Activity (MCF7 [2]): Active

EC50 (MCF7 [4]): 5.73 µM | EC50 (MCF7 [5]): 6.3 µM | EC50 (MCF7 [8]): 21.4 µM | EC50 (MCF7 [10]): 6.31 µM | EC50 (MCF7 [11]): 3.03 µM | EC50 (MCF7 [12]): 0.53 µM | EC50 (MCF7 [13]): 29.4 µM | EC50 (MCF7 [14]): 10.2 µM | EC50 (MCF7 [15]): 3.55 µM | EC50 (MCF7 [19]): 14.2 µM | EC50 (MCF7 [20]): 9.12 µM
SMILES: Oc1ccccc1-c1nc(-c2ccccc2)c2cc(Cl)ccc2n1
Activity (MCF7 [3]): Dde | Activity (MCF7 [6]): Active | Activity (MCF7 [7]): Dde | Activity (MCF7 [9]): Dde | Activity (MCF7 [1]): Active | Activity (MCF7 [16]): Active | Activity (MCF7 [17]): Dde | Activity (MCF7 [18]): Dde | Activity (MCF7 [21]): Active | Activity (MCF7 [2]): Active | Activity (MCF7 [22]): Dde | Activity (MCF7 [23]): Active | Activity (MCF7 [24]): Active

EC50 (MCF7 [8]): 44.7 µM
SMILES: CC(=O)O[C@H]1C(=O)[C@@]2(C)[C@H]([C@H](OC(=O)c3ccccc3)[C@]3(O)C[C@H](OC(=O)[C@H](O)[C@@H](NC(=O)c4ccccc4)c4ccccc4)C(C)=C1C3(C)C)[C@]1(OC(C)=O)CO[C@@H]1C[C@@H]2O [PACLITAXEL]

SMILES: FC(F)(F)c1ccc(-c2nc(-c3ccccc3)c3cc(Cl)ccc3n2)cc1
Activity (MCF7 [1]): Active | Activity (MCF7 [2]): Active

SMILES: COc1ccc(-c2nc(-c3ccccc3)c3cc(Cl)ccc3n2)c(F)c1
Activity (MCF7 [1]): Active | Activity (MCF7 [2]): Active

SMILES: CC(C)(C)c1ccc(-c2nc(-c3ccccc3)c3cc(Cl)ccc3n2)cc1
Activity (MCF7 [1]): Active | Activity (MCF7 [2]): Active

SMILES: CCCCOc1ccc(-c2nc(-c3ccccc3)c3cc(Cl)ccc3n2)cc1
Activity (MCF7 [1]): Active | Activity (MCF7 [2]): Active

SMILES: Cc1ccc(-c2nc(-c3ccccc3)c3cc(Cl)ccc3n2)cc1
Activity (MCF7 [1]): Active | Activity (MCF7 [2]): Active

— ChEMBL document CHEMBL5143664, “New synthetic phenylquinazoline derivatives induce apoptosis by targeting the pro-survival members of the BCL-2 family” (Bioorg Med Chem Lett, 2022)
